In US7166598B2, “Piperazine derivatives” (Astellas Pharma Inc., priority 1998, dated 2007):

| Structure (SMILES) | melting point |
| --- | --- |
| COC[C@@H]1CN(CCN2CCN(C(=O)c3cc(C(F)(F)F)cc(C(F)(F)F)c3)[C@H](Cc3ccc4ccccc4c3)C2)CCO1.Cl.Cl | 145 to 148 °C |
| Cl.Cn1cc(CN2CCN(C(=O)c3cc(C(F)(F)F)cc(C(F)(F)F)c3)[C@H](Cc3ccc(F)c(O)c3)C2)cn1 | 160 to 170 °C |
| Cl.Cl.O=C(c1cc(C(F)(F)F)cc(C(F)(F)F)c1)N1CCN(CCCc2cccnc2)C[C@H]1Cc1ccc(F)c(O)c1 | 80 to 95 °C |
| Cl.Cl.O=C(c1cc(C(F)(F)F)cc(C(F)(F)F)c1)N1CCN(Cc2cccnc2)C[C@H]1Cc1ccc(Cl)cc1 | 220 to 228 °C (dec.) |
| Cl.Cl.O=C(c1cc(C(F)(F)F)cc(C(F)(F)F)c1)N1CCN(Cc2cccnc2)C[C@H]1Cc1ccc2ccccc2c1 | 198 to 208 °C |
| COc1cc(C(=O)N2CCN(Cc3cccnc3)C[C@H]2Cc2ccc(Cl)c(O)c2)cc(C(F)(F)F)c1.Cl.Cl | 215 to 224 °C |
| COc1cc(C(=O)N2CCN(CCCc3cccnc3)C[C@H]2Cc2ccc(Cl)c(O)c2)cc(C(F)(F)F)c1.Cl.Cl | 90 to 110 °C |
| COC[C@@H]1CN(CCN2CCN(C(=O)c3cc(-c4ccncc4)cc(C(F)(F)F)c3)[C@H](Cc3ccc(C)c(O)c3)C2)CCO1.Cl.Cl.Cl | 169 to 173 °C |
| CSc1cc(C(=O)N2CCN(CCN3C[C@@H](C)O[C@@H](C)C3)C[C@H]2Cc2ccc(Cl)c(O)c2)cc(C(F)(F)F)c1.Cl.Cl | 162 to 178 °C |
| COC[C@@H]1CN(CCN2CCN(C(=O)c3cc(C(F)(F)F)cc(S(C)(=O)=O)c3)[C@H](Cc3ccc(C)c(O)c3)C2)CCO1.Cl.Cl | 173.5 to 178 °C |
| Cc1ccc(C[C@@H]2CN(CCN3CCOc4cccnc43)CCN2C(=O)c2cc(C(F)(F)F)cc(C(F)(F)F)c2)cc1O.Cl.Cl | 190 to 200 °C |
| Cc1ccc(C[C@@H]2CN(C/C=C\c3cccnc3)CCN2C(=O)c2cc(C(F)(F)F)cc(C(F)(F)F)c2)cc1O.Cl.Cl | 85 to 130 °C |
| Cl.Cl.Cl.O=C(c1cc([N+](=O)[O-])cc(C(F)(F)F)c1)N1CCN(CCN2CCc3ncccc3C2)C[C@H]1Cc1ccc(Cl)cc1 | 221 to 228 °C |
| CNc1cc(C(=O)N2CCN(CCN3CCc4ncccc4C3)C[C@H]2Cc2ccc(Cl)cc2)cc(C(F)(F)F)c1.Cl.Cl.Cl | 199 to 245 °C |
| CSc1cc(C(=O)N2CCN(CCN3CCc4ncccc4C3)C[C@H]2Cc2ccc(Cl)cc2)cc(C(F)(F)F)c1.Cl.Cl.Cl | 182 to 195 °C |
| Cl.Cl.Cl.O=C(c1cc(Cl)cc(C(F)(F)F)c1)N1CCN(CCN2CCc3ncccc3C2)C[C@H]1Cc1ccc(Cl)cc1 | 130.6 to 135.7 °C |
| CN(C)c1cc(C(=O)N2CCN(CCN3CCc4ncccc4C3)C[C@H]2Cc2ccc(Cl)cc2)cc(C(F)(F)F)c1.Cl.Cl.Cl | 209 to 214 °C |
| Cc1ccc(C[C@@H]2CN(Cc3csc(N(C)C)n3)CCN2C(=O)c2cc(C(F)(F)F)cc(C(F)(F)F)c2)cc1O.Cl.Cl | 162 to 165 °C |
| CNc1noc(CN2CCN(C(=O)c3cc(C(F)(F)F)cc(C(F)(F)F)c3)[C@H](Cc3ccc(C)c(O)c3)C2)n1.Cl.Cl | 145 to 160 °C |
| Cl.Cl.O=C(c1cc(C(F)(F)F)cc(C(F)(F)F)c1)N1CCN(CCCc2cccnc2)C[C@H]1Cc1ccc(C(F)(F)F)cc1 | 64 to 74 °C |
| COC[C@@H]1CN(CCN2CCN(C(=O)c3cc(C(F)(F)F)cc(C(F)(F)F)c3)[C@H](Cc3ccc(C)c(NCN4C(=O)CCC4O)c3)C2)CCO1.Cl.Cl.Cl (stereo partly shown) | 163 to 176 °C |

| Structure (SMILES) | melting point |
| --- | --- |
| COC[C@@H]1CN(CCN2CCN(C(=O)c3cc(C(F)(F)F)cc(C(F)(F)F)c3)[C@H](Cc3ccc(C)c(N4CCCC4)c3)C2)CCO1.Cl.Cl.Cl | 160 to 165 °C |
| COC[C@@H]1CN(CCN2CCN(C(=O)c3cc(C(F)(F)F)cc(C(F)(F)F)c3)[C@H](Cc3ccc(C)c(N4CCOCC4)c3)C2)CCO1.Cl.Cl.Cl | 150 to 170 °C |
| COc1cc(C[C@@H]2CN(CCN3CCOC(C)(C)C3)CCN2C(=O)c2cc(C(F)(F)F)cc(C(F)(F)F)c2)ccc1F.Cl.Cl | 152 to 162 °C |
| COC[C@@H]1CN(CCN2CCN(C(=O)c3cc(C(F)(F)F)cc(C(F)(F)F)c3)[C@H](Cc3ccc(F)c(OC)c3)C2)[C@@H](C)CO1.Cl.Cl | 140 to 164 °C |
| COC[C@H]1CN(CCN2CCN(C(=O)c3cc(C(F)(F)F)cc(C(F)(F)F)c3)[C@H](Cc3ccc(F)c(OC)c3)C2)CCO1.Cl.Cl | 139 to 148 °C |
| COC[C@H]1CN(CCN2CCN(C(=O)c3cc(C(F)(F)F)cc(C(F)(F)F)c3)[C@H](Cc3ccc(Cl)c(O)c3)C2)CCO1.Cl.Cl | 204 to 214 °C |
| CO[C@H]1CN(CCN2CCN(C(=O)c3cc(C(F)(F)F)cc(C(F)(F)F)c3)[C@H](Cc3ccc(Cl)c(O)c3)C2)C[C@@H]1OC.Cl.Cl | 150 to 155 °C |
| Cl.Cl.O=C(c1cc(C(F)(F)F)cc(C(F)(F)F)c1)N1CCN(CCN2[C@H](CO)CCC[C@@H]2CO)C[C@H]1Cc1ccc(C(F)(F)F)cc1 | 164 to 167 °C |
| COc1cc(C[C@@H]2CN(CCN3CCC[C@H]3CO)CCN2C(=O)c2cc(C(F)(F)F)cc(C(F)(F)F)c2)ccc1F.Cl.Cl | 198 to 201 °C |
| COc1cc(C[C@@H]2CN(CCN3C[C@@H](C)O[C@@H](C)C3)CCN2C(=O)c2cc(SC)cc(C(F)(F)F)c2)ccc1F.Cl.Cl | 62.5 to 82.4 °C |
| COc1cc(C[C@@H]2CN(CCN3CCc4ncccc4C3)CCN2C(=O)c2cc(SC)cc(C(F)(F)F)c2)ccc1F.Cl.Cl.Cl | 143.3 to 147.5 °C |
| COc1cc(C[C@@H]2CN(CCN3CCc4ncccc4C3)CCN2C(=O)c2cc(-c3ccncc3)cc(C(F)(F)F)c2)ccc1F.Cl.Cl.Cl.Cl | 236.8 to 248.5 °C |
| COC[C@@H]1CN(CCN2CCN(C(=O)c3cc(Cl)cc(C(F)(F)F)c3)[C@H](Cc3ccc(F)c(OC)c3)C2)CCO1.Cl.Cl | 139 to 142 °C |
| COC[C@@H]1CN(CCN2CCN(C(=O)c3cc(SC)cc(C(F)(F)F)c3)[C@H](Cc3ccc(Cl)cc3)C2)CCO1.Cl.Cl | 140 to 146 °C |
| COC[C@@H]1CN(CCN2CCN(C(=O)c3cc(SC)cc(C(F)(F)F)c3)[C@H](Cc3ccc(C(F)(F)F)cc3)C2)CCO1.Cl.Cl | 153 to 170 °C |
| COC[C@@H]1CN(CCN2CCN(C(=O)c3cc(Cl)cc(C(F)(F)F)c3)[C@H](Cc3ccc(C(F)(F)F)cc3)C2)CCO1.Cl.Cl | 168 to 173 °C |
| Cl.Cl.O=C(c1cc(C(F)(F)F)cc(C(F)(F)F)c1)N1CCN(Cc2c[nH]c3ncccc23)C[C@H]1Cc1ccc(Cl)c(O)c1 | 197 to 200 °C |
| COC[C@@H]1CN(CCN2CCN(C(=O)c3cc(C(F)(F)F)cc(C(F)(F)F)c3)[C@H](Cc3ccc(Cl)c(OC)c3)C2)CCO1.Cl.Cl | 145 to 149 °C |
| COc1cc(C[C@@H]2CN(CC#CCN3CCOCC3(C)C)CCN2C(=O)c2cc(C(F)(F)F)cc(C(F)(F)F)c2)ccc1F.Cl.Cl | 125 to 130 °C |
| COc1cc(C[C@@H]2CN(CCN3C[C@@H](C)O[C@@H](C)C3)CCN2C(=O)c2cc(C(F)(F)F)cc(C(F)(F)F)c2)ccc1F.Cl.Cl | 205 to 208 °C |
| Cl.Cl.O=C(c1cc(C(F)(F)F)cc(C(F)(F)F)c1)N1CCN(CCN2CCC(F)(F)CC2)C[C@H]1Cc1ccc(F)c(O)c1 | 190 to 200 °C |

| Structure (SMILES) | melting point |
| --- | --- |
| Cl.Cl.Cl.O=C(c1cc(C(F)(F)F)cc(C(F)(F)F)c1)N1CCN(CCN2CCc3ncccc3C2)C[C@H]1Cc1ccc(F)c(O)c1 | 240 to 241 °C |
| Cl.Cl.O=C(c1cc(C(F)(F)F)cc(C(F)(F)F)c1)N1CCN(CCCc2cccnc2)C[C@H]1Cc1ccc(F)c(F)c1 | 215 to 220 °C |
| COc1cc(C[C@@H]2CN(CCN3CCc4ncccc4C3)CCN2C(=O)c2cc(C(F)(F)F)cc(C(F)(F)F)c2)ccc1C(F)(F)F.Cl.Cl.Cl | 195 to 200 °C |
| C[C@@H]1CN(CCN2CCN(C(=O)c3cc(C(F)(F)F)cc(C(F)(F)F)c3)[C@H](Cc3ccc(C(F)(F)F)cc3)C2)C[C@H](C)O1.Cl.Cl | 148 to 159 °C |
| Cl.Cl.O=C(c1cc(C(F)(F)F)cc(C(F)(F)F)c1)N1CCN(CCN2CCC(F)(F)CC2)C[C@H]1Cc1ccc(C(F)(F)F)cc1 | 209 to 253 °C |
| Cl.Cl.O=C(c1cc(C(F)(F)F)cc(C(F)(F)F)c1)N1CCN(Cc2cccnc2)C[C@H]1Cc1ccc(C(F)(F)F)cc1 | 198 to 223 °C |
| COC[C@@H]1CN(CCN2CCN(C(=O)c3cc(OC)cc(C(F)(F)F)c3)[C@H](Cc3ccc(C(F)(F)F)cc3)C2)CCO1.Cl.Cl | 126 to 155 °C |
| COc1cc(C(=O)N2CCN(CCN3C[C@@H](C)O[C@@H](C)C3)C[C@H]2Cc2ccc(C(F)(F)F)cc2)cc(C(F)(F)F)c1.Cl.Cl | 139 to 151 °C |
| CC1(C)COCCN1CC#CCN1CCN(C(=O)c2cc(C(F)(F)F)cc(C(F)(F)F)c2)[C@H](Cc2ccc(Cl)c(O)c2)C1.Cl.Cl | 181 to 186 °C |
| Cl.Cl.Cl.O=C(c1cc(C(F)(F)F)cc(C(F)(F)F)c1)N1CCN(CCN2CCc3ncccc3C2)C[C@H]1Cc1ccc(Cl)cc1 | 172 to 203 °C (dec.) |
| COc1cc(C(=O)N2CCN(CCN3C[C@@H](C)O[C@@H](C)C3)C[C@H]2Cc2ccc(Cl)cc2)cc(C(F)(F)F)c1.Cl.Cl | 90 to 120 °C |
| C[C@@H]1CN(CCN2CCN(C(=O)c3cc(C(F)(F)F)cc(C(F)(F)F)c3)[C@H](Cc3ccc(F)cc3)C2)C[C@H](C)O1.Cl.Cl | 89 to 110.2 °C |
| Cl.Cl.Cl.O=C(c1cc(C(F)(F)F)cc(C(F)(F)F)c1)N1CCN(CCN2CCc3ncccc3C2)C[C@H]1Cc1ccc(F)cc1 | 155.5 to 170.1 °C |
| COc1cc(C(=O)N2CCN(CC#CCN3CCOCC3(C)C)C[C@H]2Cc2ccc(F)cc2)cc(C(F)(F)F)c1.Cl.Cl | 137.5 to 140.7 °C |
| Cl.Cl.Cl.O=C(c1cc(C(F)(F)F)cc(C(F)(F)F)c1)N1CCN(CCN2CCc3ncccc3C2)C[C@H]1Cc1ccc2ccccc2c1 | 189 to 194 °C |
| COC[C@@H]1CN(CCN2CCN(C(=O)c3cc(OC)cc(C(F)(F)F)c3)[C@H](Cc3ccc4ccccc4c3)C2)CCO1.Cl.Cl | 134 to 140 °C |
| COc1cc(C(=O)N2CCN(CC#CCN3CCOCC3(C)C)C[C@H]2Cc2ccc3ccccc3c2)cc(C(F)(F)F)c1.Cl.Cl | 190 to 199 °C |
| COc1cc(C(=O)N2CCN(CCN3CCC(F)(F)CC3)C[C@H]2Cc2c[nH]c3ccccc23)cc(C(F)(F)F)c1.Cl.Cl | 130 to 140 °C |
| COC[C@@H]1CN(CCN2CCN(C(=O)c3cc(OC)cc(C(F)(F)F)c3)[C@H](Cc3ccc(Cl)c(O)c3)C2)CCO1.Cl.Cl | 160 to 168 °C |
